# From the supplement of paper PMC11208160
# Assay: recombinant barcode read abundance after kanamycin selection (control-corrected) (log10(CPM+1)); higher = more efficient recombination; sequences stand for … in AGTGCAGAGAAAATCGGCCAGTTTTCTCTGCCTGCAGTCCGCATGCCGT…ATTTATGCAGCGGACTGCCTTTCTCCCAAAGTGATAAACCGGACAGTATCATGGACCGGTTTTCCCGGTAATCCGTATTTGCAAGGTTGGTTTCACT; site = the 11-nt target
# Summary of the method: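 The screen was pooled in E. coli and paired targets with IS621 bridge RNA target-binding loops. Recombination efficiency is taken from barcode counts per million at recombinant junctions, averaged and adjusted against the control. Values, in the form log10(CPM+1), come from duplicate plating on chloramphenicol/ampicillin LB agar or on chloramphenicol/ampicillin/kanamycin with 0.1 mM IPTG.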
row,Sequence,recombinant barcode read abundance (log10)
1,"GAGGCCTCCTGGGTTCTAACCTGTTGCCAGG [GAGGCCTCTTG_LTGcore_CC_RTGcore_CC] (site GAGGCCTCTTG) (LTG core: CC, RTG core: CC)",0.215
2,"GAGGCCTCTTGGGTTCTAACCTGTTGCCAAA [GAGGCCTCTTG_LTGcore_CT_RTGcore_TT] (site GAGGCCTCTTG) (LTG core: CT, RTG core: TT)",0.822
3,"GAGGCCTCTTGGGTTCTAACCTGTTGCCAAT [GAGGCCTCTTG_LTGcore_CT_RTGcore_AT] (site GAGGCCTCTTG) (LTG core: CT, RTG core: AT)",0
4,"GAGGCCTCTTGGGTTCTAACCTGTTGCCACC [GAGGCCTCTTG_LTGcore_CT_RTGcore_GG] (site GAGGCCTCTTG) (LTG core: CT, RTG core: GG)",0.236
5,"GAGGCCTCTTGGGTTCTAACCTGTTGCCACG [GAGGCCTCTTG_LTGcore_CT_RTGcore_CG] (site GAGGCCTCTTG) (LTG core: CT, RTG core: CG)",0.128
6,"GAGGCCTCTTGGGTTCTAACCTGTTGCCATT [GAGGCCTCTTG_LTGcore_CT_RTGcore_AA] (site GAGGCCTCTTG) (LTG core: CT, RTG core: AA)",0.0215
7,"GAGGCCTTTTGGGTTCTAACCTGTTGCCAAG [GAGGCCTCTTG_LTGcore_TT_RTGcore_CT] (site GAGGCCTCTTG) (LTG core: TT, RTG core: CT)",0.0682
8,"GAGTCCAAGTGGGTTCTAACCTGTTGCGTCT [GAGTCCACTAC_LTGcore_AG_RTGcore_AG] (site GAGTCCACTAC) (LTG core: AG, RTG core: AG)",0.0337
9,"GAGTCCACCTGGGTTCTAACCTGTTGCGTAG [GAGTCCACTAC_LTGcore_CC_RTGcore_CT] (site GAGTCCACTAC) (LTG core: CC, RTG core: CT)",0.172
10,"GAGTCCACGTGGGTTCTAACCTGTTGCGTCG [GAGTCCACTAC_LTGcore_CG_RTGcore_CG] (site GAGTCCACTAC) (LTG core: CG, RTG core: CG)",0.405
11,"GAGTCCACTTGGGTTCTAACCTGTTGCGTCT [GAGTCCACTAC_LTGcore_CT_RTGcore_AG] (site GAGTCCACTAC) (LTG core: CT, RTG core: AG)",0
12,"GAGTCCACTTGGGTTCTAACCTGTTGCGTGT [GAGTCCACTAC_LTGcore_CT_RTGcore_AC] (site GAGTCCACTAC) (LTG core: CT, RTG core: AC)",0.0606
13,"GAGTCCACTTGGGTTCTAACCTGTTGCGTTG [GAGTCCACTAC_LTGcore_CT_RTGcore_CA] (site GAGTCCACTAC) (LTG core: CT, RTG core: CA)",0
14,"GAGTCCAGATGGGTTCTAACCTGTTGCGTAG [GAGTCCACTAC_LTGcore_GA_RTGcore_CT] (site GAGTCCACTAC) (LTG core: GA, RTG core: CT)",0.294
15,"GAGTCCAGCTGGGTTCTAACCTGTTGCGTGC [GAGTCCACTAC_LTGcore_GC_RTGcore_GC] (site GAGTCCACTAC) (LTG core: GC, RTG core: GC)",0.174
16,"GAGTCCAGGTGGGTTCTAACCTGTTGCGTCC [GAGTCCACTAC_LTGcore_GG_RTGcore_GG] (site GAGTCCACTAC) (LTG core: GG, RTG core: GG)",0.0822
17,"GAGTCCATATGGGTTCTAACCTGTTGCGTTA [GAGTCCACTAC_LTGcore_TA_RTGcore_TA] (site GAGTCCACTAC) (LTG core: TA, RTG core: TA)",0.0207
18,"GAGTCCATCTGGGTTCTAACCTGTTGCGTAG [GAGTCCACTAC_LTGcore_TC_RTGcore_CT] (site GAGTCCACTAC) (LTG core: TC, RTG core: CT)",0.0202
19,"GAGTCCATCTGGGTTCTAACCTGTTGCGTGA [GAGTCCACTAC_LTGcore_TC_RTGcore_TC] (site GAGTCCACTAC) (LTG core: TC, RTG core: TC)",0.0654
